Assay results as given in patent US4910225A, “Locally administrable therapeutic composition for inflammatory disease” (Senju Pharmaceutical Co., Ltd., priority 1988, dated 1990).

How the values were obtained:
[1] = test system: carrageenin edema in rats; assay: Carrageenin edema of the conjunctiva in rats; assay type: in vivo; settings: 4 hours after carrageenin; for Weight of Edema: mean ± SE for 10 eyes
Procedure: 1. Sodium 3-(4-bromobenzoyl)-2-aminophenyl-acetate (hereinafter referred to as Compound [I])
2. Sodium 3-(4-chlorobenzoyl)-2-aminophenyl-acetate (hereinafter referred to as Compound [II])
3. Sodium 3-benzoyl-2-aminophenylacetate (hereinafter referred to as Compound [III])
Using female Wister rates weighing 100 g in groups of 5 animals or 10 eyes, 0.05 ml of 1% carrageenin (dissolved in physiological saline at 50° C.) as a phlogogen was injected beneath the conjuctiva of both eyes to induce edema. Physiological saline, as a control, and test drugs were respectively instilled into both eyes 40 and 20 minutes before and immediately after the injection of carrageenin, in the amount of 2.5 μl per dose. Four hours after the phlogogen treatment, each animal was sacrificed by cervical dislocation and in accordance with the method of Maistrello et al.^(2), the scalp was peeled off toward the eyelid and the edematous portion together with the skin was removed along the lid margin and weighed.
^(2) Maistrello et al.: Quantitative Effect of Topically Applied Anti-inflammatory Agents on External Ocular Inflammation in Rats: Journal of Pharmaceutical Science, volume 62, pp. 1455-60(1973).

cyclooxgenase = settings: cited from earlier work
[2] = test system: atropine-resistant miosis; assay: Atropine-resistant miosis after paracentesis; assay type: in vivo, albino rabbits
Procedure: (§1) The solutions of the following formulas were used.
(§2) Totally 28 male albino rabbits (4 rabbits×7 groups) with a body weight of about 2 kg werr used. They had been confirmed, before the experiment, to have mydriatic response to 1% atropine for at least 4 hours.
(§3) 50 μl each of 1% atropine solution was instilled into both eyes of the animals one hour before the 1st paracenthesis, in which approx. 0.2 ml/eye of aqueous humor (primary aqueous humor) was collected. Topical application of 50 μl each of the test drug solutions was conducted 30 min before the paracenthesis. Pupil diameter of each eye was measured with a slide caliper immediately before and 10 min after the paracenthesis. The 2nd paracenthesis was conducted 90 min after the 1st one, in which approx. 0.2 ml/eye of aqueous humor (secondary aqueous humor) was collected.

[3] = test system: protein increase after paracentesis; assay: Protein increase in aqueous humor after paracentesis; assay type: in vivo, albino rabbits; settings: content 0.5%
Procedure: as §1, §2, §3

Structure (SMILES) | Degree of inhibition (carrageenin edema) ([1]; 1.0%) | Weight of Edema ([1]; 1.0%) | Degree of inhibition (carrageenin edema) ([1]; 5.0%) | Weight of Edema ([1]; 5.0%) | Degree of inhibition (carrageenin edema) ([1]; 0.5%) | Weight of Edema ([1]; 0.5%) | Cyclooxygenase inhibitory activity (cyclooxgenase) | Inhibitory activity on miosis after paracentesis ([2]; Compound [I] 0.0001-0.1%, indomethacin as high as 0.5%) | Inhibition (miosis) ([2]; content 0.5%) | Miosis ([2]; content 0.5%, 10 min after paracentesis) | Inhibition (protein increase) [3]
Nc1c(CC(=O)[O-])cccc1C(=O)c1ccccc1.[Na+] [Compound [III], Sodium 3-benzoyl-2-aminophenylacetate] | 41.4% | 30.98 ± 3.194 mg | 37.9% | 32.80 ± 2.409 mg | – | – | – | – | – | – | –
Nc1c(CC(=O)[O-])cccc1C(=O)c1ccc(Cl)cc1.[Na+] [Compound [II], Sodium 3-(4-chlorobenzoyl)-2-aminophenyl-acetate] | 34.4% | 39.02 ± 3.057 mg | – | – | 36.9% | 37.52 ± 2.423 mg | – | – | – | – | –
COc1ccc2c(c1)c(CC(=O)O)c(C)n2C(=O)c1ccc(Cl)cc1 [Indomethacin, reference compound] | – | – | – | – | – | – | strong cyclooxgenase inhibitory activity | little effect was observed | 6.0 ± 21.4% | 16.4 ± 3.86% | 69.7%
